Reference: article PMC3890260 (Chemical science (Royal Society of Chemistry : 2010), 2013)

What was measured:
[1] = molecular target: T1, V. cholerae CqsS receptor (Vibrio cholerae serotype O1, UniProt Q9KM66); experiment: CqsS agonist bioassay; type: cell-based
[2] = molecular target: T1, V. cholerae CqsS receptor; conditions: cited from earlier work

T1 sequence (Q9KM66 whole entry, looked up): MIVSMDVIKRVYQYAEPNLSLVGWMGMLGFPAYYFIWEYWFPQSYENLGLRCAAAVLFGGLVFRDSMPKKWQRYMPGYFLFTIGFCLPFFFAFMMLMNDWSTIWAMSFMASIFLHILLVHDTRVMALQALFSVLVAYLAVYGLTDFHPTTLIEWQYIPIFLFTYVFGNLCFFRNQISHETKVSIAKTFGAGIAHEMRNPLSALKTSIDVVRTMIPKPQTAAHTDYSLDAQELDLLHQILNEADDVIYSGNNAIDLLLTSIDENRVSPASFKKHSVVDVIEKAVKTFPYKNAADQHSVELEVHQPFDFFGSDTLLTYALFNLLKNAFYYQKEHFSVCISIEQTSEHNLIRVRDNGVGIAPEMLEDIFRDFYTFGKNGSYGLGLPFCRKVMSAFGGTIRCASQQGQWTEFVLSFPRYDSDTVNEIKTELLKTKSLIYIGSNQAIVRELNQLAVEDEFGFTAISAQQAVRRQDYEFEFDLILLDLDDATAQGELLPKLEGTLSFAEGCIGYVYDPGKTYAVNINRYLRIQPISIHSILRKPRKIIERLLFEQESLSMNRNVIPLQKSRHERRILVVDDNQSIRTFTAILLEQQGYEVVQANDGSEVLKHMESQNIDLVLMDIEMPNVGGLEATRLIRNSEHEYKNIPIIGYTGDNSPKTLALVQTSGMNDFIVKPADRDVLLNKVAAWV

C/C=C(\N)C(=O)CCCCCCCCC [Ea-CAI-1]
EC50 ([1]; CqsS agonist bioassay, mean of triplicate analyses): 4.1 nM
% Response (percent maximal bioluminescence with respect to Ea-CAI-1) ([1]; Ea-CAI-1 set at 100%): 100%
potency as CqsS agonist compared to CAI-1 [2]: an order of magnitude more potent
